Results: patent US5472949A, “N^4 -(substituted-oxycarbonyl)-5'-deoxy-5-fluorocytidine compounds, compositions and methods of using same” (Hoffmann-La Roche Inc., priority 1992, dated 1995)
Like-named read-outs stand apart in the source and are kept apart here.

Legend:
[1] = system: CXF280 Human Colon Carcinoma; experiment: Antitumor testing against human colon cancer xenograft CXF280; type: in vivo, BALB/c nu/nu mice; set-up: key to Fecal observation: N: normal feces; L: loose passage; key to % Growth inhibition: NE: Not Effective; details: for inhibition in vivo at 1 mmol/kg/day: Exp. 1, 1.0 mmol/kg/day x 21, oral
Procedure: CXF280 tumor (about 2×2 mm piece) was implanted subcutaneously into BALB/c nu/nu mice (21-22 g) on day 0. When tumor volume became 100 mm^3 on day around 14, the compounds of the invention were orally administered daily for 3 weeks. At one day after the last treatment, tumor volume was calculated.
The percent inhibition of tumor growth given in Table 3 above was calculated from the formula:
% Inhibition ={1-(T-V0)/(C-V0)}×100
V0 =volume of tumor before treatment was started, T=volume of the tumors from the treated group, C=volume of the tumor from the control group.

[2] = Pharmacokinetic profiles in monkeys (plasma 5'-DFUR after oral administration); type: in vivo; details: cynomolgous monkeys, metabolite 5'-DFUR in plasma
Procedure: The compounds of formula (I) were orally administered into groups of 2 to 5 cynomolgous monkeys (3-4 kg). At various times after the administration, plasma was taken for determination of blood concentrations of intact molecules and their active metabolite 5'-DFUR. Metabolites in the plasma were separated by HPLC and their concentrations were calculated.

human liver acylamidase = experiment: Susceptibility to human liver acylamidase (crude liver extract, 5'-DFCR formed by HPLC); type: in vitro ADME; details: tetrahydrouridine 0.4 mM, 37° C., 60 min
Procedure: (§1) The N^4 -(substituted-oxycarbonyl)-5'-DFCRs of the invention were incubated with crude extracts of monkey and human liver in the presence of an inhibitor of cytidine deaminase, tetrahydrouridine (0.4 mM) at 37° C. for 60 min. Thereafter, the product 5'-DFCR was separated by HPLC and the enzyme susceptibility was calculated from the amount of the product.

monkey liver acylamidase = experiment: Susceptibility to monkey liver acylamidase (crude liver extract, 5'-DFCR formed by HPLC); type: in vitro ADME; details: tetrahydrouridine 0.4 mM, 37° C., 60 min
Procedure: as §1

[3] = Exp. 2, 0.089 mmol/kg/day x 21, oral
[4] = Mus musculus, po, Exp. 1, 0.13 mmol/kg/day x 21, oral, read-out: % Growth inhibition
[5] = Mus musculus, po, Exp. 2, 0.13 mmol/kg/day x 21, oral, read-out: % Growth inhibition
[6] = Exp. 2, 2.25 mmol/kg/day x 21, oral
[7] = Mus musculus, po, Exp. 2, 0.3 mmol/kg/day x 21, oral, read-out: % Growth inhibition
[8] = Mus musculus, po, Exp. 2, 0.67 mmol/kg/day x 21, oral, read-out: % Growth inhibition
[9] = Mus musculus, po, Exp. 2, 1.5 mmol/kg/day x 21, oral, read-out: % Growth inhibition
[10] = Mus musculus, po, Exp. 2, 2.25 mmol/kg/day x 21, oral, read-out: % Growth inhibition
[11] = Exp. 1, 1.5 mmol/kg/day x 21, oral
[12] = Mus musculus, po, Exp. 1, 0.3 mmol/kg/day x 21, oral, read-out: % Growth inhibition
[13] = Mus musculus, po, Exp. 1, 0.67 mmol/kg/day x 21, oral, read-out: % Growth inhibition
[14] = Mus musculus, po, read-out: % Growth inhibition
[15] = Mus musculus, po, Exp. 1, 1.5 mmol/kg/day x 21, oral, read-out: % Growth inhibition

O=c1[nH]cc(F)c(=O)[nH]1 [Example 5-FU, 5-fluorouracil, reference compound]
Fecal observation ([1]; Exp. 1, 0.089 mmol/kg/day x 21, oral): N | Fecal observation ([1]; Exp. 1, 0.13 mmol/kg/day x 21, oral): N | Fecal observation ([1]; Exp. 1, 0.2 mmol/kg/day x 21, oral): L | % Growth inhibition [1, 3]: NE | Fecal observation [1, 3]: N | Fecal observation ([1]; Exp. 2, 0.13 mmol/kg/day x 21, oral): N | Fecal observation ([1]; Exp. 2, 0.2 mmol/kg/day x 21, oral): L | inhibition in vivo at 0.089 mmol/kg/day ([1]; Mus musculus, po, Exp. 1, 0.089 mmol/kg/day x 21, oral, read-out: % Growth inhibition): 28% | inhibition in vivo at 0.13 mmol/kg/day [1, 4]: 59% | inhibition in vivo at 0.2 mmol/kg/day ([1]; Mus musculus, po, Exp. 1, 0.2 mmol/kg/day x 21, oral, read-out: % Growth inhibition): 79% | inhibition in vivo at 0.13 mmol/kg/day [1, 5]: 20% | inhibition in vivo at 0.2 mmol/kg/day ([1]; Mus musculus, po, Exp. 2, 0.2 mmol/kg/day x 21, oral, read-out: % Growth inhibition): 58%

CCCOC(=O)Nc1nc(=O)n([C@@H]2O[C@H](C)[C@@H](O)[C@H]2O)cc1F [Example 10, 5'-deoxy-5-fluoro-N^4-(propoxycarbonyl)cytidine]
Fecal observation [1, 6]: N | inhibition in vivo at 0.13 mmol/kg/day [1, 5]: 39% | inhibition in vivo at 0.3 mmol/kg/day [1, 7]: 56% | inhibition in vivo at 0.67 mmol/kg/day [1, 8]: 75% | inhibition in vivo at 1.5 mmol/kg/day [1, 9]: 86% | inhibition in vivo at 2.25 mmol/kg/day [1, 10]: 93% | Plasma 5'-DFUR AUC [2]: 2.03 µg·h/mL

CCCCOC(=O)Nc1nc(=O)n([C@@H]2O[C@H](C)[C@@H](O)[C@H]2O)cc1F [Example 11, N^4-(butoxycarbonyl)-5'-deoxy-5-fluorocytidine]
Fecal observation [1, 6]: N | inhibition in vivo at 0.13 mmol/kg/day [1, 5]: 46% | inhibition in vivo at 0.3 mmol/kg/day [1, 7]: 72% | inhibition in vivo at 0.67 mmol/kg/day [1, 8]: 84% | inhibition in vivo at 1.5 mmol/kg/day [1, 9]: 95% | inhibition in vivo at 2.25 mmol/kg/day [1, 10]: 100% | Acylamidase activity, Human Liver (human liver acylamidase): 71 nmol/mg protein/hr | Plasma 5'-DFUR AUC [2]: 2.06 µg·h/mL | Acylamidase activity, Monkey Liver (monkey liver acylamidase): 20 nmol/mg protein/hr

CCCCCOC(=O)Nc1nc(=O)n([C@@H]2O[C@H](C)[C@@H](O)[C@H]2O)cc1F [Example 12, 5'-deoxy-5-fluoro-N^4-(pentyloxycarbonyl)cytidine]
Fecal observation [1, 11]: N | inhibition in vivo at 0.13 mmol/kg/day [1, 4]: 68% | inhibition in vivo at 0.3 mmol/kg/day [1, 12]: 69% | inhibition in vivo at 0.67 mmol/kg/day [1, 13]: 86% | inhibition in vivo at 1 mmol/kg/day [1, 14]: 86% | inhibition in vivo at 1.5 mmol/kg/day [1, 15]: 96% | Acylamidase activity, Human Liver (human liver acylamidase): 190 nmol/mg protein/hr | Plasma 5'-DFUR AUC [2]: 2.90 µg·h/mL | Acylamidase activity, Monkey Liver (monkey liver acylamidase): 29 nmol/mg protein/hr

CCC(CC)COC(=O)Nc1nc(=O)n([C@@H]2O[C@H](C)[C@@H](O)[C@H]2O)cc1F [Example 15, 5'-deoxy-N^4-[(2-ethylbutoxy)carbonyl]-5-fluorocytidine]
Acylamidase activity, Human Liver (human liver acylamidase): 210 nmol/mg protein/hr | Plasma 5'-DFUR AUC [2]: 2.89 µg·h/mL | Acylamidase activity, Monkey Liver (monkey liver acylamidase): 23 nmol/mg protein/hr

C[C@H]1O[C@@H](n2cc(F)c(NC(=O)OCC3CCCCC3)nc2=O)[C@H](O)[C@@H]1O [Example 16, N^4-[(cyclohexylmethoxy)carbonyl]-5'-deoxy-5-fluorocytidine]
Acylamidase activity, Human Liver (human liver acylamidase): 210 nmol/mg protein/hr | Plasma 5'-DFUR AUC [2]: 2.52 µg·h/mL | Acylamidase activity, Monkey Liver (monkey liver acylamidase): 33 nmol/mg protein/hr

C[C@H]1O[C@@H](n2cc(F)c(NC(=O)OCCC3CCCCC3)nc2=O)[C@H](O)[C@@H]1O [Example 20, N^4-[(2-cyclohexylethoxy)carbonyl]-5'-deoxy-5-fluorocytidine]
Acylamidase activity, Human Liver (human liver acylamidase): 320 nmol/mg protein/hr | Acylamidase activity, Monkey Liver (monkey liver acylamidase): 19 nmol/mg protein/hr

C[C@H]1O[C@@H](n2cc(F)c(NC(=O)OCCCC3CCCCC3)nc2=O)[C@H](O)[C@@H]1O [Example 21, N^4-[(3-cyclohexylpropyl)oxycarbonyl]-5'-deoxy-5-fluorocytidine]
Acylamidase activity, Human Liver (human liver acylamidase): 82 nmol/mg protein/hr | Acylamidase activity, Monkey Liver (monkey liver acylamidase): 26 nmol/mg protein/hr

C[C@H]1O[C@@H](n2cc(F)c(NC(=O)OCCCc3ccccc3)nc2=O)[C@H](O)[C@@H]1O [Example 22, 5'-deoxy-5-fluoro-N^4-[(3-phenylpropyl)oxycarbonyl]cytidine]
Acylamidase activity, Human Liver (human liver acylamidase): 110 nmol/mg protein/hr | Acylamidase activity, Monkey Liver (monkey liver acylamidase): 43 nmol/mg protein/hr

CC(C)COC(=O)Nc1nc(=O)n([C@@H]2O[C@H](C)[C@@H](O)[C@H]2O)cc1F [Example 24, 5'-deoxy-5-fluoro-N^4-(isobutoxycarbonyl)cytidine]
Fecal observation [1, 11]: N | inhibition in vivo at 0.13 mmol/kg/day [1, 4]: 37% | inhibition in vivo at 0.3 mmol/kg/day [1, 12]: 64% | inhibition in vivo at 0.67 mmol/kg/day [1, 13]: 75% | inhibition in vivo at 1 mmol/kg/day [1, 14]: 83% | inhibition in vivo at 1.5 mmol/kg/day [1, 15]: 89% | Acylamidase activity, Human Liver (human liver acylamidase): 64 nmol/mg protein/hr | Acylamidase activity, Monkey Liver (monkey liver acylamidase): 18 nmol/mg protein/hr

CCCC(CCC)COC(=O)Nc1nc(=O)n([C@@H]2O[C@H](C)[C@@H](O)[C@H]2O)cc1F [Example 25, 5'-deoxy-5-fluoro-N^4-[(2-propylpentyl)oxycarbonyl]cytidine]
Acylamidase activity, Human Liver (human liver acylamidase): 160 nmol/mg protein/hr | Acylamidase activity, Monkey Liver (monkey liver acylamidase): < 13 nmol/mg protein/hr

CCCCC(CC)COC(=O)Nc1nc(=O)n([C@@H]2O[C@H](C)[C@@H](O)[C@H]2O)cc1F (stereo partly shown) [Example 26, 5'-deoxy-N^4-[(2-ethylhexyl)oxycarbonyl]-5-fluorocytidine]
Acylamidase activity, Human Liver (human liver acylamidase): 560 nmol/mg protein/hr | Acylamidase activity, Monkey Liver (monkey liver acylamidase): 20 nmol/mg protein/hr

CCCCCCCOC(=O)Nc1nc(=O)n([C@@H]2O[C@H](C)[C@@H](O)[C@H]2O)cc1F [Example 27, 5'-deoxy-5-fluoro-N^4-(heptyloxycarbonyl)cytidine]
Fecal observation ([1]; Exp. 2, 1.5 mmol/kg/day x 21, oral): N | Fecal observation [1, 6]: N | inhibition in vivo at 0.13 mmol/kg/day [1, 5]: 26% | inhibition in vivo at 0.3 mmol/kg/day [1, 7]: 72% | inhibition in vivo at 0.67 mmol/kg/day [1, 8]: 84% | inhibition in vivo at 1.5 mmol/kg/day [1, 9]: 94% | inhibition in vivo at 2.25 mmol/kg/day [1, 10]: 103% | Acylamidase activity, Human Liver (human liver acylamidase): 110 nmol/mg protein/hr | Acylamidase activity, Monkey Liver (monkey liver acylamidase): 59 nmol/mg protein/hr

C[C@H]1O[C@@H](n2cc(F)c(NC(=O)OCC(C)(C)C)nc2=O)[C@H](O)[C@@H]1O [Example 28, 5'-deoxy-5-fluoro-N^4-(neopentyloxycarbonyl)cytidine]
Acylamidase activity, Human Liver (human liver acylamidase): 52 nmol/mg protein/hr | Plasma 5'-DFUR AUC [2]: 1.40 µg·h/mL | Acylamidase activity, Monkey Liver (monkey liver acylamidase): 25 nmol/mg protein/hr

C[C@H]1O[C@@H](n2cc(F)c(NC(=O)OCCC(C)(C)C)nc2=O)[C@H](O)[C@@H]1O [Example 29, 5'-Deoxy-N^4-[(3,3-dimethylbutoxy)carbonyl]-5-fluorocytidine]
Acylamidase activity, Human Liver (human liver acylamidase): 50 nmol/mg protein/hr | Plasma 5'-DFUR AUC [2]: 2.09 µg·h/mL | Acylamidase activity, Monkey Liver (monkey liver acylamidase): 22 nmol/mg protein/hr
